Reference: ChEMBL document CHEMBL6182887, “Chemical modification of monensin as a source of potent antiplasmodial agents” (Bioorg Med Chem, 2025)

How the values were obtained:
[1] = test system: Plasmodium berghei; test: (§1) Antiplasmodial activity against hepatic stage luciferase-expressing Plasmodium berghei sporozoites infected in human Huh-7 cells assessed as reduction in parasite burden preincubated for 1 hrs followed by infection and measured after 46 hrs by […]; format: functional, organism-based
[2] = Cytotoxicity against human Huh-7 cells assessed as reduction in cell viability incubated for 46 hrs by AlamarBlue dye based fluorescence analysis; format: toxicity
[3] = Selectivity index, ratio of CC50 for cytotoxicity against human Huh-7 cells to IC50 for antiplasmodial activity against hepatic stage luciferase-expressing Plasmodium berghei sporozoites infected in human Huh-7 cells; format: toxicity, cell-based; details: read-out: Ratio CC50/IC50
[4] = test system: Plasmodium falciparum; test: Antiplasmodial activity against Plasmodium falciparum; format: functional, organism-based
[5] = test system: Plasmodium berghei; test: as §1, with “Potency index, ratio of monensin IC50 to test compound IC50 for antiplasmodial” for “Antiplasmodial”; format: functional; details: time 47 hrs

Row | IC50 [4] | Compound | IC50 [1] | CC50 at 46 h [2] | selectivity ratio [3] | Ratio IC50 [5]
1 |  | CC[C@@]1([C@@H]2O[C@@H]([C@H]3O[C@@](O)(CO)[C@H](C)C[C@@H]3C)C[C@@H]2C)CC[C@H]([C@]2(C)CC[C@]3(C[C@H](O)[C@@H](C)[C@@H]([C@@H](C)[C@@H](OC)[C@H](C)C(=O)OCCCC[P+](c4ccccc4)(c4ccccc4)c4ccccc4)O3)O2)O1 | 623 nM | 5800 nM | 9.3 | 
2 | 1.52 nM | CC[C@@]1([C@@H]2O[C@@H]([C@H]3O[C@@](O)(COS(=O)(=O)c4ccc(C)cc4)[C@H](C)C[C@@H]3C)C[C@@H]2C)CC[C@H]([C@]2(C)CC[C@]3(C[C@H](O)[C@@H](C)[C@@H]([C@@H](C)[C@@H](OC)[C@H](C)C(=O)O)O3)O2)O1 |  |  |  | 
3 |  | CC[C@@]1([C@@H]2O[C@@H]([C@H]3O[C@@](O)(COC(=O)Nc4ccccc4)[C@H](C)C[C@@H]3C)C[C@@H]2C)CC[C@H]([C@]2(C)CC[C@]3(C[C@H](O)[C@@H](C)[C@@H]([C@@H](C)[C@@H](OC)[C@H](C)C(=O)O)O3)O2)O1 | 0.7 nM | 3100 nM | 4430 | ~8
4 |  | CC[C@@]1([C@@H]2O[C@@H]([C@H]3O[C@@](O)(CNC(=O)c4ccccc4)[C@H](C)C[C@@H]3C)C[C@@H]2C)CC[C@H]([C@]2(C)CC[C@]3(C[C@H](O)[C@@H](C)[C@@H]([C@@H](C)[C@@H](OC)[C@H](C)C(=O)O)O3)O2)O1 | 6.4 nM | 8400 nM | 1310 | 
5 |  | CC[C@@]1([C@@H]2O[C@@H]([C@H]3O[C@@](O)(CNC(=O)Nc4ccccc4)[C@H](C)C[C@@H]3C)C[C@@H]2C)CC[C@H]([C@]2(C)CC[C@]3(C[C@H](O)[C@@H](C)[C@@H]([C@@H](C)[C@@H](OC)[C@H](C)C(=O)O)O3)O2)O1 | 2.9 nM | 4200 nM | 1450 | 
6 |  | CC[C@@]1([C@@H]2O[C@@H]([C@H]3O[C@@](O)(CNC(=O)CCC[P+](c4ccccc4)(c4ccccc4)c4ccccc4)[C@H](C)C[C@@H]3C)C[C@@H]2C)CC[C@H]([C@]2(C)CC[C@]3(C[C@H](O)[C@@H](C)[C@@H]([C@@H](C)[C@@H](OC)[C@H](C)C(=O)O)O3)O2)O1 | 1490 nM | 75300 nM | 50.6 | 
7 |  | CC[C@@]1([C@@H]2O[C@@H]([C@H]3O[C@@](O)(CO)[C@H](C)C[C@@H]3C)C[C@@H]2C)CC[C@H]([C@]2(C)CC[C@]3(C[C@H](O)[C@@H](C)[C@@H]([C@@H](C)[C@@H](OC)[C@H](C)C(=O)OCc4ccccc4)O3)O2)O1 | 81.6 nM | 31300 nM | 384 | 
8 | 1.08 nM | CC[C@@]1([C@@H]2O[C@@H]([C@H]3O[C@@]4(COC(=O)O4)[C@H](C)C[C@@H]3C)C[C@@H]2C)CC[C@H]([C@]2(C)CC[C@]3(C[C@H](O)[C@@H](C)[C@@H]([C@@H](C)[C@@H](OC)[C@H](C)C(=O)O)O3)O2)O1 |  |  |  | 
9 |  | COc1cc(NC(C)CCCN)c2ncccc2c1 (configuration not stated) [PRIMAQUINE] |  | 139000 nM | 16.4 | 

Row | Compound | IC50 [4] | IC50 [1] | CC50 at 46 h [2] | selectivity ratio [3] | Ratio IC50 [5]
10 | CC[C@@]1([C@@H]2O[C@@H]([C@H]3O[C@@](O)(CO)[C@H](C)C[C@@H]3C)C[C@@H]2C)CC[C@H]([C@]2(C)CC[C@]3(C[C@H](O)[C@@H](C)[C@@H]([C@@H](C)[C@@H](OC)[C@H](C)C(=O)O)O3)O2)O1 [MONENSIN] | 2.46 nM | 5.5 nM | 17500 nM | 3180 | 
